Experiment: Elution of antibiotics from cured α-BSM cement ball into phosphate buffer
Assay type: physicochemical
Details: other material used as carrier instead of the hydroxyapatite-like cement pastes
Protocol: 1 g of cement powder (α-BSM, WO 96/36562) and 0.7 ml of water in which 42 mg of gentamycin sulfate have been dissolved are mixed with one another. A paste is obtained by this means, which is shaped to give a ball of about 1 cm diameter. This ball is added at 37° C. to 20 ml of phosphate buffer according to Sörensen (pH 7.4). After approximately 10 minutes, the cement ball cures. At defined times, samples are taken from the buffer solution and the concentration of the antibiotic is determined microbiologically or chromatographically according to standard methods. The determined antibiotic concentrations in μg/ml correspond to the concentrations released in the buffer.
Analogously to Example 1, a previously cured ball of agar/gentamycin sulfate is eluted and the corresponding concentrations are measured.
Analogously to Example 1, an α-BSM/cefazolin ball is eluted and the corresponding concentrations are measured.
Analogously to Example 1, an α-BSM/netilmycin sulfate ball is eluted and the corresponding concentrations are measured.

Question: Which “release characteristics of the antibiotic (in words)” value does the source give for gentamycin sulfate here?
Answer: released just as rapidly

— patent US6485754B1, “Bone cement paste containing an antibiotic” (Merck Patent GmbH, priority 1997, dated 2002)
